Earlier results in paper PMC12332767 (RSC Chemical Biology, 2025).

heparin [HI]
Insoluble in chloroform (HI alone): 98.5%
Soluble in chloroform in interaction with PC (HI in interaction with PC): 74%
